Series [1] deals with T1, Glucocorticoid receptor (Homo sapiens) (UniProt P04150).
T1 sequence (whole entry): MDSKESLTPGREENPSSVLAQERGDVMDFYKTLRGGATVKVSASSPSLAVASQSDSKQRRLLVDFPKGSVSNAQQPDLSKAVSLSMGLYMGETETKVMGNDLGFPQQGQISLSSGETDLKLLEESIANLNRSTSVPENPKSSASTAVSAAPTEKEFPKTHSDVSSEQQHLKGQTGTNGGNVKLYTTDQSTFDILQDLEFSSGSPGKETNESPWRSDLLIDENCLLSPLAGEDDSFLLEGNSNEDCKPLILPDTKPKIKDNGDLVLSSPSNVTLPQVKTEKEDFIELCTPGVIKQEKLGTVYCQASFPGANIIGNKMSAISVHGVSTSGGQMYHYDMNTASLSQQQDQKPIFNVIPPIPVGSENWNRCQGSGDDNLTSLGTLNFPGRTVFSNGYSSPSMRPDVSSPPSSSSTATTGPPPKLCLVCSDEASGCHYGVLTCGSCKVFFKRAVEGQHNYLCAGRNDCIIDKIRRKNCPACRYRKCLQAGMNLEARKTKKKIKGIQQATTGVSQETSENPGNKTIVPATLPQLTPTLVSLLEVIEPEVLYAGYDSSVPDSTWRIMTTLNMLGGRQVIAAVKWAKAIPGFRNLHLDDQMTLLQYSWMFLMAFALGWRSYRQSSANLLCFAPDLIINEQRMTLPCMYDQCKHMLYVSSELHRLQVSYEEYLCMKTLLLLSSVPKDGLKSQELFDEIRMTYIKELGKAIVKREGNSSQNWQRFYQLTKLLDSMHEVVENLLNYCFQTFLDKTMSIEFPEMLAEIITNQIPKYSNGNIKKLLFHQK
Kind of series: Agonist activity at glucocorticoid receptor in human HeLa cells by dual-Glo luciferase assay. In kind it is cell-based.

Series [2] concerns the target T2, Mineralocorticoid receptor (Homo sapiens) (UniProt P08235).
T2 sequence (whole entry): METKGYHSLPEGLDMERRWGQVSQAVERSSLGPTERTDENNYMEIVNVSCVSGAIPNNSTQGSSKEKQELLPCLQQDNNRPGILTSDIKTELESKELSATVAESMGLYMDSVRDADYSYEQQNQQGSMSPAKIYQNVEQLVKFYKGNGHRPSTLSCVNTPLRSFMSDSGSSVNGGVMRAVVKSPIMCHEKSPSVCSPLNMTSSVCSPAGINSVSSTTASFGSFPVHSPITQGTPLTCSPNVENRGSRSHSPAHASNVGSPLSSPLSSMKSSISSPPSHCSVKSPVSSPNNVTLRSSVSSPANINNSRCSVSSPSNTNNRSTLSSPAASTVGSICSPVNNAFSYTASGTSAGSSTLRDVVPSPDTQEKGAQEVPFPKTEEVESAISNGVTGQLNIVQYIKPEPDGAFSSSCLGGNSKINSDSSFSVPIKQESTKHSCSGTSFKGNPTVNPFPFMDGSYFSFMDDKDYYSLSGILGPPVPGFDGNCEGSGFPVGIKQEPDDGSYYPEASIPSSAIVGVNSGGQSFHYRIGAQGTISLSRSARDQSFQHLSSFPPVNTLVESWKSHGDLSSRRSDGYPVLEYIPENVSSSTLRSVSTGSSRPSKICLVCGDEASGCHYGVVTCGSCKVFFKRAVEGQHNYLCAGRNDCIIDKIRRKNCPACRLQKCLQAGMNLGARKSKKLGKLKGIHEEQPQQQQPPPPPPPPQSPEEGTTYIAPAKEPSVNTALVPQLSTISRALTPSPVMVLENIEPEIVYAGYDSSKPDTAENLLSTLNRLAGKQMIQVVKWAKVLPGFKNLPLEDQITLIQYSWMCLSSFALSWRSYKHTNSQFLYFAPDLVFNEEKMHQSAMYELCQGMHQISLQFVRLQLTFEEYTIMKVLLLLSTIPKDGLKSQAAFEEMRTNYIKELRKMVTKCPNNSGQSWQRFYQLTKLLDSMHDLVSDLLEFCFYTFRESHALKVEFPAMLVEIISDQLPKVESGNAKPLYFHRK
Put plainly: Antagonist activity at mineralocorticoid receptor in human PC-3 cells assessed as reduction in aldosterone-induced luciferase activity at 10 uM by dual-Glo luciferase assay. In kind it is cell-based.

Series [3] has as its target T3, Androgen receptor (Homo sapiens, UniProt P10275).
T3 sequence (P10275 whole entry): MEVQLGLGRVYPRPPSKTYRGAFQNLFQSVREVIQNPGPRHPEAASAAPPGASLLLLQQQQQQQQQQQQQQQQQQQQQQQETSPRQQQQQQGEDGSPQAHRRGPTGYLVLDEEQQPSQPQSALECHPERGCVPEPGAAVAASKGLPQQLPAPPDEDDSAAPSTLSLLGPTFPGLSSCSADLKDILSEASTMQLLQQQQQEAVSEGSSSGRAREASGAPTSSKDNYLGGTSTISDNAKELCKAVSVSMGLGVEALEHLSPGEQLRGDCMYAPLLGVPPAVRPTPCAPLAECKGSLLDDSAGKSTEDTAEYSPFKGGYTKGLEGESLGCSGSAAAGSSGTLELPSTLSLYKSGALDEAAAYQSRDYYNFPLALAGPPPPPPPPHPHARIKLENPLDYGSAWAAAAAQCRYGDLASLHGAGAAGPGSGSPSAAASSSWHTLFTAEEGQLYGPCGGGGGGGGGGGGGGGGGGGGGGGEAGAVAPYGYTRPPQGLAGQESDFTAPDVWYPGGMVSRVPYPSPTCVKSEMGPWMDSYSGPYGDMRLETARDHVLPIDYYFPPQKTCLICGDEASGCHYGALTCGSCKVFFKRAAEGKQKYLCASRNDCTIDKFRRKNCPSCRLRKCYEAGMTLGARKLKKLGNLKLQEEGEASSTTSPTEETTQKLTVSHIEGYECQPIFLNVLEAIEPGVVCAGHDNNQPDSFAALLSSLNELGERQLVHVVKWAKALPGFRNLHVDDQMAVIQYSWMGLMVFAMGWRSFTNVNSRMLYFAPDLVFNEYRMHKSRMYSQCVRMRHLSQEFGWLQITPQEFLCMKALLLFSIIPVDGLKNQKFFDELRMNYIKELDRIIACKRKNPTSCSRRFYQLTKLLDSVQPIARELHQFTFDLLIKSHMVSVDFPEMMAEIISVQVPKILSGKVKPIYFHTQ
Description: Binding affinity to GST-tagged AR ligand binding domain (unknown origin) measured after 4 hrs by fluorescence polarization assay

The subject of series [4] is HeLa. Put plainly: Cytotoxicity against human HeLa cells assessed as reduction in cell viability at low concentration incubated for 72 hrs by MTT assay. In kind it is functional, cell-based.
The target of series [5] is T3, Androgen receptor. Put plainly: Inhibition of AR transcriptional activity in human LNCaP cells harboring ARR2PB-eGFP incubated for 72 hrs by fluorescence assay. In kind it is cell-based.
Series [6] concerns MCF7. Put plainly: Cytotoxicity against human MCF7 cells assessed as reduction in cell viability at 50 uM incubated for 72 hrs by MTT assay. In kind it is functional, cell-based. (Tetrazolium assays rely on reduction of a dye to a coloured formazan, in cell work by metabolically active cells.)
Series [7] relates to NIH3T3. Put plainly: Cytotoxicity against mouse NIH3T3 cells assessed as reduction in cell viability incubated for 72 hrs by MTT assay. The following applies: nih3t3, 72 h. In kind it is cell-based.

Active and inactive are the calls of the source. No cut-off for these calls is given here.

The IC50 is the concentration that inhibits the measured activity by half. A low value points to higher potency.

In the case of `O=c1cc(C(F)(F)F)c2ccc(OCc3ccc(Br)cc3)cc2o1`, the result in series [1], in series [2] and in series [4] was inactive. Moreover, the IC50 worked out at 750 nM in series [3] and 170 nM in series [5]. Besides, in series [6], the outcome was Active. The Activity entry in series [7] was “Non-Toxic”.

The values above are taken from ChEMBL document CHEMBL5055679, “Discovery of a Novel Androgen Receptor Antagonist Manifesting Evidence to Disrupt the Dimerization of the Ligand-Binding Domain via Attenuating the Hydrogen-Bonding Network Between the Two Monomers” (J Med Chem, 2021).
